{
  "source": "patent US12077503B2",
  "about": "“Substituted cyclic amides and their use as herbicides” (FMC CORPORATION, priority 2015, dated 2024)",
  "format_in_all_cases": "in vivo",
  "key": {"[1]": {"test_system": "Kochia (Kochia scoparia)", "assay": "Test A preemergence", "details": "Bassia scoparia, pre-emergence, 240 h, 0 to 100 scale where 0 is no effect and 100 is complete control, read-out: Kochia plant response rating", "procedure,_shortened": "(§1)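 Seeded soil received test chemicals as a preemergence directed spray, and seedlings at one to two leaves, 2–10 cm tall, received them postemergence, in a non-phytotoxic, surfactant-containing solvent mixture. Pots were held in a greenhouse for approximately 10 d, then rated for injury from 0, no effect, to 100, complete control.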"}, "[2]": {"test_system": "barnyardgrass (Echinochloa crus-galli)", "assay": "Test A preemergence", "details": "Echinochloa crus-galli, pre-emergence, 240 h, 0 to 100 scale where 0 is no effect and 100 is complete control, read-out: Barnyardgrass plant response rating", "procedure,_shortened": "as §1"}, "[3]": {"test_system": "giant foxtail (Setaria faberii)", "assay": "Test A preemergence", "details": "Setaria faberi, pre-emergence, 240 h, 0 to 100 scale where 0 is no effect and 100 is complete control, read-out: Foxtail, Giant plant response rating", "procedure,_shortened": "as §1"}, "[4]": {"test_system": "pigweed (Amaranthus retroflexus)", "assay": "Test A preemergence", "details": "Amaranthus retroflexus, pre-emergence, 240 h, 0 to 100 scale where 0 is no effect and 100 is complete control, read-out: Pigweed plant response rating"}, "[5]": {"test_system": "ragweed (common ragweed, Ambrosia elatior)", "assay": "Test A preemergence", "details": "Ambrosia artemisiifolia, pre-emergence, 240 h, 0 to 100 scale where 0 is no effect and 100 is complete control, read-out: Ragweed plant response rating", "procedure,_shortened": "as §1"}, "[6]": {"test_system": "ryegrass, Italian (Italian ryegrass, Lolium multiflorum)", "assay": "Test A preemergence", "details": "Lolium multiflorum, pre-emergence, 240 h, 0 to 100 scale where 0 is no effect and 100 is complete control, read-out: Ryegrass, Italian plant response rating", "procedure,_shortened": "as §1"}, "[7]": {"test_system": "Galium (catchweed bedstraw, Galium aparine)", "assay": "Test A postemergence", "details": "Galium, post-emergence, 240 h", "procedure,_shortened": "as §1"}, "[8]": {"test_system": "Kochia (Kochia scoparia)", "assay": "Test A postemergence", "details": "Bassia scoparia, post-emergence, 240 h", "procedure,_shortened": "as §1"}, "[9]": {"test_system": "barnyardgrass (Echinochloa crus-galli)", "assay": "Test A postemergence", "details": "Echinochloa crus-galli, post-emergence, 240 h", "procedure,_shortened": "as §1"}, "[10]": {"test_system": "blackgrass (Alopecurus myosuroides)", "assay": "Test A postemergence", "details": "Alopecurus myosuroides, post-emergence, 240 h", "procedure,_shortened": "as §1"}, "[11]": {"test_system": "corn (Zea mays)", "assay": "Test A postemergence", "details": "Zea mays, post-emergence, 240 h", "procedure,_shortened": "as §1"}, "[12]": {"test_system": "giant foxtail (Setaria faberii)", "assay": "Test A postemergence", "details": "Setaria faberi, post-emergence, 240 h", "procedure,_shortened": "as §1"}, "[13]": {"test_system": "pigweed (Amaranthus retroflexus)", "assay": "Test A postemergence", "details": "Amaranthus retroflexus, post-emergence, 240 h", "procedure,_shortened": "as §1"}, "[14]": {"test_system": "ragweed (common ragweed, Ambrosia elatior)", "assay": "Test A postemergence", "details": "Ambrosia artemisiifolia, post-emergence, 240 h", "procedure,_shortened": "as §1"}, "[15]": {"test_system": "ryegrass, Italian (Italian ryegrass, Lolium multiflorum)", "assay": "Test A postemergence", "details": "Lolium multiflorum, post-emergence, 240 h", "procedure,_shortened": "as §1"}, "[16]": {"test_system": "wheat (Triticum aestivum)", "assay": "Test A postemergence", "details": "Triticum aestivum, post-emergence, 240 h", "procedure,_shortened": "as §1"}, "[17]": {"test_system": "barnyardgrass (Echinochloa crus-galli)", "assay": "Test B flooded paddy test", "details": "Echinochloa crus-galli, 250 g ai/ha, Flood; 0 to 100 scale where 0 is no effect and 100 is complete control; read-out: Barnyardgrass plant response rating", "procedure,_shortened": "(§2)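 Greenhouse paddy pots with 2-leaf stage plants received compound by direct addition to floodwater 3 cm deep, kept at that level. Scored visually at 13–15 d versus controls (0 no effect; 100 complete control).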"}, "[18]": {"test_system": "ducksalad (Heteranthera limosa)", "assay": "Test B flooded paddy test", "details": "Heteranthera limosa, 250 g ai/ha, Flood; 0 to 100 scale where 0 is no effect and 100 is complete control; read-out: Ducksalad plant response rating", "procedure,_shortened": "as §2"}, "[19]": {"test_system": "rice (Oryra sativa)", "assay": "Test B flooded paddy test", "details": "Oryza sativa, 250 g ai/ha, Flood; 0 to 100 scale where 0 is no effect and 100 is complete control; read-out: Rice plant response rating", "procedure,_shortened": "as §2"}, "[20]": {"test_system": "sedge, umbrella (small-flower umbrella sedge, Cyperus difformis)", "assay": "Test B flooded paddy test", "details": "Cyperus difformis, 250 g ai/ha, Flood; 0 to 100 scale where 0 is no effect and 100 is complete control; read-out: Sedge, Umbrella plant response rating", "procedure,_shortened": "as §2"}, "[21]": {"details": "125 g ai/ha, preemergence, approx. 10 d"}},
  "data": [
    {"smiles": "CSc1ccccc1NC(=O)[C@H]1C(=O)N(C)C[C@@H]1c1cc(C(F)F)cs1", "note": "[Compound 1088]", "values": [
      {"measurement": "pest or weed control at 31 g/ha", "setting": "[1]; 31 g ai/ha, Preemergence", "value": 30, "unit": "%"},
      {"measurement": "pest or weed control at 125 g/ha", "setting": "[1]; [21]", "value": 20, "unit": "%"},
      {"measurement": "pest or weed control at 31 g/ha", "setting": "[2]; 31 g ai/ha, Preemergence", "value": 0, "unit": "%"},
      {"measurement": "pest or weed control at 125 g/ha", "setting": "[2]; [21]", "value": 30, "unit": "%"},
      {"measurement": "pest or weed control at 31 g/ha", "setting": "[3]; 31 g ai/ha, Preemergence", "value": 0, "unit": "%"},
      {"measurement": "pest or weed control at 125 g/ha", "setting": "[3]; [21]", "value": 100, "unit": "%"},
      {"measurement": "pest or weed control at 31 g/ha", "setting": "[4]; 31 g ai/ha, Preemergence", "value": 0, "unit": "%"},
      {"measurement": "pest or weed control at 125 g/ha", "setting": "[4]; [21]", "value": 0, "unit": "%"},
      {"measurement": "pest or weed control at 31 g/ha", "setting": "[5]; 31 g ai/ha, Preemergence", "value": 0, "unit": "%"},
      {"measurement": "pest or weed control at 125 g/ha", "setting": "[5]; [21]", "value": 0, "unit": "%"},
      {"measurement": "pest or weed control at 31 g/ha", "setting": "[6]; 31 g ai/ha, Preemergence", "value": 0, "unit": "%"},
      {"measurement": "pest or weed control at 125 g/ha", "setting": "[6]; [21]", "value": 0, "unit": "%"},
      {"measurement": "pest or weed control at 125 g/ha", "setting": "[7]; 125 g ai/ha, postemergence, visual injury on 0 to 100 scale (0 no effect, 100 complete control), approx. 10 d, read-out: Galium plant response rating", "value": 30, "unit": "%"},
      {"measurement": "pest or weed control at 31 g/ha", "setting": "[7]; Postemergence, 31 g ai/ha, visual injury after approx. 10 d, 0 to 100 scale, 0 no effect, 100 complete control, read-out: Plant response rating, Galium", "value": 20, "unit": "%"},
      {"measurement": "pest or weed control at 125 g/ha", "setting": "[8]; 125 g ai/ha, postemergence, visual injury on 0 to 100 scale (0 no effect, 100 complete control), approx. 10 d, read-out: Kochia plant response rating", "value": 0, "unit": "%"},
      {"measurement": "pest or weed control at 31 g/ha", "setting": "[8]; Postemergence, 31 g ai/ha, visual injury after approx. 10 d, 0 to 100 scale, 0 no effect, 100 complete control, read-out: Plant response rating, Kochia", "value": 0, "unit": "%"},
      {"measurement": "pest or weed control at 125 g/ha", "setting": "[9]; 125 g ai/ha, postemergence, visual injury on 0 to 100 scale (0 no effect, 100 complete control), approx. 10 d, read-out: Barnyardgrass plant response rating", "value": 30, "unit": "%"},
      {"measurement": "pest or weed control at 31 g/ha", "setting": "[9]; Postemergence, 31 g ai/ha, visual injury after approx. 10 d, 0 to 100 scale, 0 no effect, 100 complete control, read-out: Plant response rating, Barnyardgrass", "value": 0, "unit": "%"},
      {"measurement": "pest or weed control at 125 g/ha", "setting": "[10]; 125 g ai/ha, postemergence, visual injury on 0 to 100 scale (0 no effect, 100 complete control), approx. 10 d, read-out: Blackgrass plant response rating", "value": 0, "unit": "%"},
      {"measurement": "pest or weed control at 31 g/ha", "setting": "[10]; Postemergence, 31 g ai/ha, visual injury after approx. 10 d, 0 to 100 scale, 0 no effect, 100 complete control, read-out: Plant response rating, Blackgrass", "value": 0, "unit": "%"},
      {"measurement": "plant injury at 125 g/ha", "setting": "[11]; 125 g ai/ha, postemergence, visual injury on 0 to 100 scale (0 no effect, 100 complete control), approx. 10 d, read-out: Corn plant response rating", "value": 0, "unit": "%"},
      {"measurement": "Corn plant response rating (crop injury, 0 = no effect, 100 = complete kill) at 31 g/ha", "setting": "[11]; Postemergence, 31 g ai/ha, visual injury after approx. 10 d, 0 to 100 scale, 0 no effect, 100 complete control", "value": 0, "unit": "%"},
      {"measurement": "pest or weed control at 125 g/ha", "setting": "[12]; 125 g ai/ha, postemergence, visual injury on 0 to 100 scale (0 no effect, 100 complete control), approx. 10 d, read-out: Foxtail, Giant plant response rating", "value": 20, "unit": "%"},
      {"measurement": "pest or weed control at 31 g/ha", "setting": "[12]; Postemergence, 31 g ai/ha, visual injury after approx. 10 d, 0 to 100 scale, 0 no effect, 100 complete control, read-out: Plant response rating, Foxtail, Giant", "value": 0, "unit": "%"},
      {"measurement": "pest or weed control at 125 g/ha", "setting": "[13]; 125 g ai/ha, postemergence, visual injury on 0 to 100 scale (0 no effect, 100 complete control), approx. 10 d, read-out: Pigweed plant response rating", "value": 0, "unit": "%"},
      {"measurement": "pest or weed control at 31 g/ha", "setting": "[13]; Postemergence, 31 g ai/ha, visual injury after approx. 10 d, 0 to 100 scale, 0 no effect, 100 complete control, read-out: Plant response rating, Pigweed", "value": 0, "unit": "%"},
      {"measurement": "pest or weed control at 125 g/ha", "setting": "[14]; 125 g ai/ha, postemergence, visual injury on 0 to 100 scale (0 no effect, 100 complete control), approx. 10 d, read-out: Ragweed plant response rating", "value": 0, "unit": "%"},
      {"measurement": "pest or weed control at 31 g/ha", "setting": "[14]; Postemergence, 31 g ai/ha, visual injury after approx. 10 d, 0 to 100 scale, 0 no effect, 100 complete control, read-out: Plant response rating, Ragweed", "value": 0, "unit": "%"},
      {"measurement": "pest or weed control at 125 g/ha", "setting": "[15]; 125 g ai/ha, postemergence, visual injury on 0 to 100 scale (0 no effect, 100 complete control), approx. 10 d, read-out: Ryegrass, Italian plant response rating", "value": 0, "unit": "%"},
      {"measurement": "pest or weed control at 31 g/ha", "setting": "[15]; Postemergence, 31 g ai/ha, visual injury after approx. 10 d, 0 to 100 scale, 0 no effect, 100 complete control, read-out: Plant response rating, Ryegrass, Italian", "value": 0, "unit": "%"},
      {"measurement": "plant injury at 125 g/ha", "setting": "[16]; 125 g ai/ha, postemergence, visual injury on 0 to 100 scale (0 no effect, 100 complete control), approx. 10 d, read-out: Wheat plant response rating", "value": 0, "unit": "%"},
      {"measurement": "plant injury at 31 g/ha", "setting": "[16]; Postemergence, 31 g ai/ha, visual injury after approx. 10 d, 0 to 100 scale, 0 no effect, 100 complete control, read-out: Plant response rating, Wheat", "value": 0, "unit": "%"},
      {"measurement": "pest or weed control at 250 g/ha", "setting": "[17]", "value": 30, "unit": "%"},
      {"measurement": "pest or weed control at 250 g/ha", "setting": "[18]", "value": 75, "unit": "%"},
      {"measurement": "pest or weed control at 250 g/ha", "setting": "[19]", "value": 0, "unit": "%"},
      {"measurement": "pest or weed control at 250 g/ha", "setting": "[20]", "value": 0, "unit": "%"}
    ]}
  ]
}
